Common to all, as to format: physicochemical
Data set [1] is described as follows: Solubility in 0.01 N HCl.
The nature of data set [2]: Solubility in phosphate buffered saline.
Data set [3] in a line: Solubility in simulated intestinal fluid.
Data set [4] is described as follows: Lipophilicity, log D of the compound at pH 7.4. The note with it: buffer.

Values after ≈ are worked out from the molar mass of the structure shown. A value given as a limit tells only on which side of the number the result lay.

By solubility is commonly meant the dissolved amount per volume that the medium holds. Read a low solubility as little dissolved substance. One may read the logD as the decadic logarithm of the distribution of all forms, ionised or not, between an organic phase and buffer at a given pH.

Turning to `Cc1c(C)n(Cc2ccccc2)c2ncnc(OC3CCN(Cc4cscn4)CC3)c12`, the figures for the solubility in data set [1], in data set [2] and in data set [3] were more than 200 µg/mL, 65 µg/mL (≈ 150 µM) and 177 µg/mL (≈ 408 µM), respectively. The compound further showed a logD in data set [4] of 4.35. `Cc1cn(Cc2ccccc2)c2ncnc(OC3CCN(Cc4cscn4)CC3)c12`: in data set [4], the log distribution coefficient (logD) was determined as 3.89. The compound `Fc1cn(Cc2ccccc2)c2ncnc(OC3CCN(Cc4cscn4)CC3)c12` registered a logD in data set [4] of 3.49.

In data set [4], `Clc1cn(Cc2ccccc2)c2ncnc(OC3CCN(Cc4cscn4)CC3)c12` had a logD of 4.03. Turning to `c1ccc(Cn2ccc3c(OC4CCN(Cc5cscn5)CC4)ncnc32)cc1`, the logD in data set [4] was determined as 3.44. As to `Cc1nc(OC2CCN(Cc3cscn3)CC2)c2ccn(Cc3ccccc3)c2n1`, the logD in data set [4] was determined as 4.15.

Take `FC(F)(F)c1nc(OC2CCN(Cc3cscn3)CC2)c2ccn(Cc3ccccc3)c2n1`: the pH-dependent lipophilicity (logD) in data set [4] is 5.1.

For `c1ccc(Cn2ncc3c(OC4CCN(Cc5cscn5)CC4)ncnc32)cc1`, the logD in data set [4] was determined as 2.18. The compound `c1ccc(Cn2cnc3c(OC4CCN(Cc5cscn5)CC4)ncnc32)cc1` returned a logD in data set [4] of 2.28. This logD and that of the compound before are within 0.2 log units of each other. As to `CC1(C)CN(Cc2ccccc2)c2ncnc(OC3CCN(Cc4cscn4)CC3)c21`, in data set [4], the logD is 3.94. Regarding `CC1(C)C(=O)N(Cc2ccccc2)c2ncnc(OC3CCN(Cc4cscn4)CC3)c21`, the logD in data set [4] came to 2.39. As to `c1ccc(-n2ccc3c(OC4CCN(Cc5cscn5)CC4)ncnc32)cc1`, in data set [4], the logD is 3.3. `c1ccc(CCn2ccc3c(OC4CCN(Cc5cscn5)CC4)ncnc32)cc1` returned a logD in data set [4] of 3.87.

In data set [4], `c1nc(OC2CCN(Cc3cscn3)CC2)c2ccn(CC3CCCCC3)c2n1` had a logD of 4.32. Compound `Fc1ccccc1Cn1ccc2c(OC3CCN(Cc4cscn4)CC3)ncnc21` displayed a logD in data set [4] of 3.49. `Fc1cccc(Cn2ccc3c(OC4CCN(Cc5cscn5)CC4)ncnc32)c1`: the logD in data set [4] came out at 3.49.

On to `Fc1ccc(Cn2ccc3c(OC4CCN(Cc5cscn5)CC4)ncnc32)cc1`, for which the logD in data set [4] was 3.49. In data set [4], `Clc1cccc(Cn2ccc3c(OC4CCN(Cc5cscn5)CC4)ncnc32)c1` displayed a logD of 4.03. The compound `Clc1ccc(Cn2ccc3c(OC4CCN(Cc5cscn5)CC4)ncnc32)cc1` gave a logD in data set [4] of 4.03. In data set [4], `Cc1ccccc1Cn1ccc2c(OC3CCN(Cc4cscn4)CC3)ncnc21` showed a logD of 3.9.

In turn, `Cc1cccc(Cn2ccc3c(OC4CCN(Cc5cscn5)CC4)ncnc32)c1` came in with a logD in data set [4] of 3.9.

In turn, `Cc1ccc(Cn2ccc3c(OC4CCN(Cc5cscn5)CC4)ncnc32)cc1` showed a pH-dependent lipophilicity (logD) in data set [4] of 3.9. On the same count and under the same terms, then `FC(F)(F)c1ccccc1Cn1ccc2c(OC3CCN(Cc4cscn4)CC3)ncnc21`, with 4.01. For `FC(F)(F)c1cccc(Cn2ccc3c(OC4CCN(Cc5cscn5)CC4)ncnc32)c1`, the logD in data set [4] came to 4.01.

In turn, `FC(F)(F)c1ccc(Cn2ccc3c(OC4CCN(Cc5cscn5)CC4)ncnc32)cc1` yielded a log distribution coefficient (logD) in data set [4] of 4.01. The same measure, in the same setting: then `Fc1cccc(Cn2ccc3c(OC4CCN(Cc5cscn5)CC4)ncnc32)c1F`, with 3.45. `Fc1c(Cl)cccc1Cn1ccc2c(OC3CCN(Cc4cscn4)CC3)ncnc21` showed a logD in data set [4] of 4.19.

Consider `Fc1c(Cn2ccc3c(OC4CCN(Cc5cscn5)CC4)ncnc32)cccc1C(F)(F)F`, for which the logD in data set [4] was found to be 4.08. This logD and that of the compound before are within 0.2 log units of each other. `Fc1cccc(F)c1Cn1ccc2c(OC3CCN(Cc4cscn4)CC3)ncnc21` came in with a logD in data set [4] of 3.58.

In data set [4], `c1ccc(Cn2ccc3c(OC4CCNCC4)ncnc32)cc1` came in with a logD of 1.24. In turn, `c1ccc(Cn2ccc3c(OC4CCN(c5ccccc5)CC4)ncnc32)cc1` returned a logD in data set [4] of 5.31. As to `c1ccc(CN2CCC(Oc3ncnc4c3ccn4Cc3ccccc3)CC2)cc1`, in data set [4], the logD stood at 4.96. On to `O=C(c1cscn1)N1CCC(Oc2ncnc3c2ccn3Cc2ccccc2)CC1`, for which, in data set [4], the logD worked out at 3.07.

In turn, `c1ccc(Cn2ccc3c(OC4CCN(Cc5cocn5)CC4)ncnc32)cc1` had a log distribution coefficient (logD) in data set [4] of 3.1. The same measure, in the same setting: then `c1ccc(Cn2ccc3c(OC4CCN(Cc5c[nH]cn5)CC4)ncnc32)cc1`, with 2.35; and `c1ccc(Cn2ccc3c(OC4CCN(Cc5ccn[nH]5)CC4)ncnc32)cc1`, with 3.02; and `c1ccc(Cn2ccc3c(OC4CCN(Cc5cn[nH]c5)CC4)ncnc32)cc1`, with 3.16.

With `Cn1cc(CN2CCC(Oc3ncnc4c3ccn4Cc3ccccc3)CC2)cn1`, the pH-dependent lipophilicity (logD) in data set [4] came out at 3.01. On to `Cn1ccnc1CN1CCC(Oc2ncnc3c2ccn3Cc2ccccc2)CC1`, for which the logD in data set [4] was 2.93. The compound `Cc1nc(CN2CCC(Oc3ncnc4c3ccn4Cc3ccccc3)CC2)cs1` showed a logD in data set [4] of 4.1. The same measure, in the same setting: then `c1ccc(Cn2ccc3c(OC4CCN(Cc5nccs5)CC4)ncnc32)cc1`, with 4.81. In turn, `c1ccc(Cn2ccc3c(OC4CCN(Cc5ccccn5)CC4)ncnc32)cc1` registered a logD in data set [4] of 3.7.

With `c1ccc(Cn2ccc3c(OC4CCN(Cc5cccnc5)CC4)ncnc32)cc1`, the logD in data set [4] was 3.67.

For `c1ccc(Cn2ccc3c(OC4CCN(Cc5ccncc5)CC4)ncnc32)cc1`, the logD in data set [4] amounted to 3.69.

`Cc1cccc(CN2CCC(Oc3ncnc4c3ccn4Cc3ccccc3)CC2)n1` registered a logD in data set [4] of 4.08.

With `Cc1ccc(CN2CCC(Oc3ncnc4c3ccn4Cc3ccccc3)CC2)nc1`, the logD in data set [4] was 4.15.

Consider `Cc1ccnc(CN2CCC(Oc3ncnc4c3ccn4Cc3ccccc3)CC2)c1`, for which, in data set [4], the log distribution coefficient (logD) came to 4.15.

`Cc1cccnc1CN1CCC(Oc2ncnc3c2ccn3Cc2ccccc2)CC1` yielded a log distribution coefficient (logD) in data set [4] of 4.15.

`Fc1cccc(CN2CCC(Oc3ncnc4c3ccn4Cc3ccccc3)CC2)n1`: in data set [4], the logD was determined as 3.83.

`Fc1ccc(CN2CCC(Oc3ncnc4c3ccn4Cc3ccccc3)CC2)nc1` returned a logD in data set [4] of 3.76.

For the compound `Fc1cccnc1CN1CCC(Oc2ncnc3c2ccn3Cc2ccccc2)CC1`, the logD in data set [4] came to 3.77. The logD values of the last two compounds are within 0.2 log units of each other.

`c1ccc(Cn2ccc3c(OC4CCN(Cc5cnccn5)CC4)ncnc32)cc1` registered a logD in data set [4] of 2.71. As to `Fc1ccccc1Cn1ccc2c(OC3CCN(Cc4ccccn4)CC3)ncnc21`, the pH-dependent lipophilicity (logD) in data set [4] is 3.75. The same measure, in the same setting: the value for `Fc1cccc(Cn2ccc3c(OC4CCN(Cc5ccccn5)CC4)ncnc32)c1F` was 3.71; that for `Fc1c(Cl)cccc1Cn1ccc2c(OC3CCN(Cc4ccccn4)CC3)ncnc21` was 4.46. As for `Fc1c(Cn2ccc3c(OC4CCN(Cc5ccccn5)CC4)ncnc32)cccc1C(F)(F)F`, the logD in data set [4] amounted to 4.35.

These data come from ChEMBL document CHEMBL2010651, “Discovery and hit-to-lead optimization of pyrrolopyrimidines as potent, state-dependent Na(v)1.7 antagonists” (Bioorg Med Chem Lett, 2012).
